For data set [1], the target named is T1, WT DAT (Rattus norvegicus, UniProt P23977).
T1 construct: expressed in transfected cells; host or cells: CHO-K1, stably transfected (G-418 selection); intact monolayers in A1 and A3, membranes in A5
In words: [3H]-dopamine uptake and uptake inhibition, CHO cells stably expressing WT DAT. In kind it is cell-based.

For data set [2], the target named is T2, D79E DAT (Rattus norvegicus, UniProt P23977, D79E).
T2 construct: expressed in transfected cells; host or cells: CHO-K1, stably transfected; intact attached monolayers
T2 sequence (P23977 1-619 D79E): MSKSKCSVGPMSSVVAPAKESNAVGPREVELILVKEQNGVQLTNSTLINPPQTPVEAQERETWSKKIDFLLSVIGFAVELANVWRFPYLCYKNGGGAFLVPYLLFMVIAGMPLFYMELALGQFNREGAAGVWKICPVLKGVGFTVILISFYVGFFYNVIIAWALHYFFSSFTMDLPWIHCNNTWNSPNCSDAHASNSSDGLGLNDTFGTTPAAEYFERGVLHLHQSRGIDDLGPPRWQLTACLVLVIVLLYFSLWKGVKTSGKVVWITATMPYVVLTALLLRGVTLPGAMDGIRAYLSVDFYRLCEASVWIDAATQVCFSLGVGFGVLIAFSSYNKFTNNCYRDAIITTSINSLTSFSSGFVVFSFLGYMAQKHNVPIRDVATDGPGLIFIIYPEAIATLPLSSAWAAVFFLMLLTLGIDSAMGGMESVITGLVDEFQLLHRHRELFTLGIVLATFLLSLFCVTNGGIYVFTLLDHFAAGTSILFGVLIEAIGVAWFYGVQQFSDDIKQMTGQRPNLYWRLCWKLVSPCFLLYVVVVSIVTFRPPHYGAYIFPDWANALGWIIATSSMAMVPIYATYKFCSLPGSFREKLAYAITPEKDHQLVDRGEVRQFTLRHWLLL
The experiment in a line: [3H]-dopamine uptake and uptake inhibition, CHO cells stably expressing D79E DAT. In kind it is cell-based.

Data set [3] addresses T1, WT DAT. In words: [3H]-WIN 35,428 binding / displacement at intact CHO cells stably expressing WT DAT. On the procedure: (§1) Ligand binding assays. […] Nonradioactive competitor concentrations were as indicated above for uptake inhibition. […] Membranes were aspirated with a Brandel harvester onto GF/B glass-fiber filter paper, washed with 3×5 ml cold binding buffer, and the filters measured for radioactivity via scintillation counting. For all binding assays, data were analyzed with the GraphPad Prism 2.0 software to obtain Kd, Ki and Bmax values.

Data set [4] addresses T2, D79E DAT. The experiment in a line: [3H]-WIN 35,428 binding / displacement at CHO cells stably expressing D79E DAT. The following applies: for loss of binding affinity ([3H]-WIN 35,428 displacement) caused by the D79E mutation (D79E vs WT DAT): CHO cells, comparison of Ki values. As for the experimental part:
as §1

The subject of another data set is intact naïve CHO cells. In words: [3H]-WIN 35,428 low affinity site of intact naïve CHO cells. The data set is classed as binding. The note with it: intact naïve (untransfected) CHO cells. On the procedure: To further address this steric issue, dihydroxy-benzylamine (DHBA) was employed as a potential DAT substrate. […] Ligand binding assays were conducted under conditions that matched those for assaying uptake inhibition.

Substrate in data set [5]: NCCc1ccc(O)c(O)c1
The experiment in a line: cells, lysate or membranes. The following applies: 22° C., KRH buffer, mean ± standard error, pH 7.3.

The mark [6] stands for this setting: DAT substrates, CHO cells, WT DAT, 22° C., KRH buffer, mean ± standard error, read-out: Ki, inhibition of [3H]-DA uptake.
The mark [7] stands for this setting: CHO cells, comparison of Ki values.
Where [8] appears, read: DAT substrates, CHO cells, D79E DAT, 22° C., KRH buffer, mean ± standard error, read-out: Ki, inhibition of [3H]-DA uptake.
Setting [9] is: DAT substrates, intact CHO cells, WT DAT, 1 nM [3H]-WIN 35,428, 15 min, 22° C., read-out: Ki, [3H]-WIN inhibition (binding affinity).
Where [10] appears, read: DAT substrates, intact CHO cells, D79E DAT, 1 nM [3H]-WIN 35,428, 15 min, 22° C., read-out: Ki, [3H]-WIN inhibition (binding affinity).

Numbering of substitutions follows the chain as printed. Names and notes keep the numbering of the source. Values joined by “and” are separate entries in the source; they are usually repeats but may differ in a detail not shown here. Equal entries are not always repeated. Marks after values point to notes of the source that are not given here. Some results are limits rather than exact numbers.

T1 sequence (P23977 whole entry): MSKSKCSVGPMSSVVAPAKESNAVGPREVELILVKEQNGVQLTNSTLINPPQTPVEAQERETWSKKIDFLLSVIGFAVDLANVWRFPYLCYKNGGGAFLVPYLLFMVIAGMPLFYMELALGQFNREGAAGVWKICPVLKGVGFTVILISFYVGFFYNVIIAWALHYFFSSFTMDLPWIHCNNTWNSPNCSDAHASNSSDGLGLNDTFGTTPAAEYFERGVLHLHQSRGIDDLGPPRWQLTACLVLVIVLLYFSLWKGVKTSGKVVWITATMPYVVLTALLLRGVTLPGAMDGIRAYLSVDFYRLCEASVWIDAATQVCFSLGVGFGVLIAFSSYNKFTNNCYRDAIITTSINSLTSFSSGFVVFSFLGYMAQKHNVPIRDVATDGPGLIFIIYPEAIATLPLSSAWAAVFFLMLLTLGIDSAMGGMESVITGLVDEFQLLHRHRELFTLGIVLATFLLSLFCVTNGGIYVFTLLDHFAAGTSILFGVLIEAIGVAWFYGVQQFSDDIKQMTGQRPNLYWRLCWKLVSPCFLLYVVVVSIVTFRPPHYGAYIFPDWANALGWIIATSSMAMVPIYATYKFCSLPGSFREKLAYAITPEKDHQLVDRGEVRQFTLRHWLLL

On to `NCCc1ccc(O)cc1` [p-Tyramine], for which the Ki at WT DAT [1] (setting [6]) came out at 1.7 ± 0.1 µM; on D79E DAT [2] (setting [8]), 3.3 ± 0.4 µM; on WT DAT [3] (setting [9]), 0.8 µM; on D79E DAT [4] (setting [10]), 4.3 ± 0.5 µM. Besides, on D79E DAT [2] (setting [7]), the “loss of dopamine uptake inhibition potency caused by the D79E mutation (D79E vs WT DAT)” value came to 2 fold.
In the case of `COC(=O)[C@H]1[C@@H](c2ccc(F)cc2)C[C@@H]2CC[C@H]1N2C` [WIN 35,428], the “loss of dopamine uptake inhibition potency caused by the D79E mutation (D79E vs WT DAT)” value at D79E DAT [2] (setting [7]) was “no effect”. For the same molecule, the “specific binding of [3H]-WIN 35,428” value at D79E DAT [4] (D79E DAT, suspended cells or cell membrane preparation in KRH uptake buffer) is reported as “undetectable”. For the same molecule, the equilibrium dissociation constant (Kd) in the data set on intact naïve CHO cells was over 1 µM.
Take `NCCc1cccc(O)c1` [m-Tyramine]: the Ki was 1.4 ± 0.3 µM on WT DAT [1] (setting [6]), 1.2 ± 0.3 µM on D79E DAT [2] (setting [8]), 1 µM at WT DAT [3] (setting [9]) and 6.6 ± 1.2 µM on D79E DAT [4] (setting [10]). Moreover, the “loss of dopamine uptake inhibition potency caused by the D79E mutation (D79E vs WT DAT)” value on D79E DAT [2] (setting [7]) is listed as “unchanged”.
On to dihydroxybenzylamine [DHBA], for which the Ki was 5760 ± 540 µM at WT DAT [1] (setting [6]); 782 ± 22 µM on D79E DAT [2] (setting [8]); 800 µM and 801 µM at WT DAT [3] (setting [9]); 791 ± 27 µM on D79E DAT [4] (setting [10]). In addition, at D79E DAT [2], the “Ki at D79E DAT relative to the Ki value for dopamine binding at WT DAT (higher)” value is 377 fold. Also, the “Ki for uptake inhibition at D79E DAT relative to the dopamine Km value at WT DAT (higher)” value on D79E DAT [2] stood at 460 fold. For the same molecule, on D79E DAT [2] (setting [7]), the “potency in inhibiting [3H]-dopamine uptake, higher at D79E DAT compared to WT DAT” value worked out at 7 fold. The “more potent as inhibitor of [3H]-WIN 35,428 binding than as inhibitor of [3H]-dopamine uptake at WT DAT” value at WT DAT [3] (intact CHO cells stably expressing WT DAT) is on record as 7 fold. Besides, the “loss of binding affinity ([3H]-WIN 35,428 displacement) caused by the D79E mutation (D79E vs WT DAT)” value (shortened to “loss of binding affinity … (D79E vs WT DAT)”) at D79E DAT [4] is “identical”. Moreover, the “potency of inhibition of [3H]-WIN 35,428 binding compared with potency for inhibition of [3H]-dopamine uptake at D79E DAT” value on D79E DAT [4] (intact CHO cells, D79E DAT) was “agrees well”.
With `COC(=O)C(c1ccccc1)C1CCCCN1` (stereo not shown) [Methylphenidate, methylphenidate], the figures for the Ki on D79E DAT [2] and on D79E DAT [4] were 0.161 ± 0.009 µM and 0.167 ± 0.002 µM, respectively. At D79E DAT [2] (setting [7]), the “loss of dopamine uptake inhibition potency caused by the D79E mutation (D79E vs WT DAT)” value is reported as “no effect”.
With `NC[C@H](O)c1ccc(O)c(O)c1` [Norepinephrine], the Ki on WT DAT [1] (setting [6]) was 5.4 µM; on D79E DAT [2] (setting [8]) it was 5.2 ± 0.3 µM; at WT DAT [3] (setting [9]), 2.3 µM; at D79E DAT [4], 5.5 ± 0.7 µM. The “loss of dopamine uptake inhibition potency caused by the D79E mutation (D79E vs WT DAT)” value at D79E DAT [2] (setting [7]) was “equally effective”. Further, the “loss of binding affinity … (D79E vs WT DAT)” value at D79E DAT [4] came out at 2 fold.
`OC1(c2ccc(Cl)cc2)c2ccccc2C2=NCCN21` (stereo not shown) [Mazindol, mazindol]: the Ki at WT DAT [1] stood at 0.031 ± 0.003 µM; at D79E DAT [2], 0.047 ± 0.004 µM; at WT DAT [3], 0.013 ± 0.001 µM; at D79E DAT [4], 0.041 ± 0.003 µM. The “loss of dopamine uptake inhibition potency caused by the D79E mutation (D79E vs WT DAT)” value on D79E DAT [2] (setting [7]) was “no effect”.
Take `NCCc1ccc(O)c(O)c1` [Dopamine, dopamine]: the “Vmax/Bmax (dopamine turnover rate)” value at WT DAT [1] (WT DAT CHO cells, Bmax from [3H]-WIN 35,428 saturation binding) turned out to be 34.1 min⁻¹; on D79E DAT [2] (D79E DAT CHO cells, Bmax from [3H]-WIN 35,428 saturation binding), 7.9 min⁻¹. For the same molecule, the “Vmax of dopamine uptake” value is given as 348 ± 22 pmol/mg/min on WT DAT [1] (WT DAT CHO cells, dopamine at 0.1 Ci/mmol, 5 min, 22° C.) and 48 ± 4^a pmol/mg/min on D79E DAT [2] (D79E DAT CHO cells, dopamine at 0.1 Ci/mmol, 5 min, 22° C.). Besides, the “WT DAT turnover rate higher than that for D79E DAT CHO cells” value at WT DAT [1] ([3H]-dopamine uptake kinetics, CHO cells) is recorded as 7 fold. The “decrease in DAT dopamine turnover rate rendered by the D79E mutation” value on D79E DAT [2] (corrected for fewer transporters at the cell surface) is “approximately 4 fold”. Besides, at D79E DAT [4], the “loss of binding affinity … (D79E vs WT DAT)” value is on record as “almost identical”.

B1: WT DAT (Rattus norvegicus) (protein)
chain: T2 sequence (P23977 1-619 D79E) with E79D
Consider B1, for which the Km in data set [5] (other: CHO cells stably expressing WT DAT) worked out at 1.7 ± 0.3 µM.

B2: D79E DAT (Rattus norvegicus; D79E) (protein)
chain: T2 sequence (P23977 1-619 D79E)
Take B2: the Km in data set [5] (other: CHO cells stably expressing D79E DAT) was 2.3 ± 0.3^ μM.

In general, Kd refers to the free concentration of one partner at which half of the binding sites on the other are occupied at equilibrium, for simple one-to-one binding. High values mean weaker binding, low ones tighter binding. Broadly, the Km is the substrate concentration at which the rate is half of its maximum.

The values are drawn from patent US20050196744A1 (priority 2004, published 2005).
